The values that follow come from US20240190890A1, “MK2 INHIBITORS AND USES THEREOF” (Bristol-Myers Squibb Company, priority 2022, published 2024).

One may read the IC50 as the point on the concentration scale where inhibition reaches its midpoint.

Sequence of p38a activated, mitogen-activated protein kinase-activated protein kinase 2 (MAPKAP-K2 or MK2) enzyme (P49137 whole entry): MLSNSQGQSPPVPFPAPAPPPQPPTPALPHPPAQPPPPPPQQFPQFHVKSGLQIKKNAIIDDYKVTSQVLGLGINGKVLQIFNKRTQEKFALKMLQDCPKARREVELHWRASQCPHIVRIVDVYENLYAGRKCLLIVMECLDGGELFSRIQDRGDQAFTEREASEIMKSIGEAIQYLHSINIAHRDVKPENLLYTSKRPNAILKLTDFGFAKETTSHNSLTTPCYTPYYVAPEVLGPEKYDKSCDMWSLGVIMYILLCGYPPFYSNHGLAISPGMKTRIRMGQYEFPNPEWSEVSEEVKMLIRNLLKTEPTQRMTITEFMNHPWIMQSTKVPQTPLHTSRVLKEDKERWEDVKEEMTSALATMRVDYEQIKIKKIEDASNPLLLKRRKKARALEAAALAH

This experiment deals with p38a activated, mitogen-activated protein kinase-activated protein kinase 2 (MAPKAP-K2 or MK2) enzyme (Homo sapiens (Human), UniProt P49137). As to the kind of experiment: MK2 Omnia continuous-read kinase assay for compound potency. Format: biochemical. To be noted: [MK-2]=0.4 nM, [ATP]=10 μM, [ST3-Sox]=10 μM; room temperature. The procedure, abridged:
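p38a-activated MK2 (0.4 nM) with 10 μM ATP (apparent Km) and 10 μM S/T3-Sox peptide in Tris pH 7.5 buffer with MgCl2, EGTA and DTT. Fluorescence (ex360/em485) read continuously for 120 min at room temperature. IC50 from initial linear slopes; apparent kinact/KI from kobs of exponential progress-curve fits.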
On to `C[C@@H]1CNc2c(sc3ccc4nc(-c5nc(Cl)ncc5COC5(C)CCC5)ccc4c23)C(=O)N1` [Example I-27, (R)-3-(2-chloro-5-((1-methylcyclobutoxy)methyl)pyrimidin-4-yl)-10-methyl-9,10,11,12-tetrahydro-8H-[1,4]diazepino[5′,6′:4,5]thieno[3,2-f]quinolin-8-one], for which the IC50 is 391 nM. The figure for `C#Cc1cc(N2CCN(C)CC2)nc(-c2ccc3c(ccc4sc5c(c43)NC[C@@H](C)NC5=O)n2)n1` [Example I-61, (R)-3-(4-ethynyl-6-(4-methylpiperazin-1-yl)pyrimidin-2-yl)-10-methyl-9,10,11,12-tetrahydro-8H-[1,4]diazepino[5′,6′:4,5]thieno[3,2-f]quinolin-8-one] is 73 nM; for `C=C(C)c1cc(-c2ccc3c(ccc4sc5c(c43)NC[C@@H](C)NC5=O)n2)nc(COCC)n1` [Example I-37, (R)-3-(2-(ethoxymethyl)-6-(prop-1-en-2-yl)pyrimidin-4-yl)-10-methyl-9,10,11,12-tetrahydro-8H-[1,4]diazepino[5′,6′:4,5]thieno[3,2-f]quinolin-8-one] it is 10 nM; for `C[C@@H]1CNc2c(sc3ccc4nc(-c5ccnc(C#CC(C)(C)N)c5)ccc4c23)C(=O)N1` [Example I-135, (R)-3-(2-(3-amino-3-methylbut-1-yn-1-yl)pyridin-4-yl)-10-methyl-9,10,11,12-tetrahydro-8H-[1,4]diazepino[5′,6′:4,5]thieno[3,2-f]quinolin-8-one] it is 15 nM.

For `C=C(C)c1ncc(COCC)c(-c2ccc3c(ccc4sc5c(c43)NC[C@@H](C)NC5=O)n2)n1` [Example I-50, (R)-3-(5-(ethoxymethyl)-2-(prop-1-en-2-yl)pyrimidin-4-yl)-10-methyl-9,10,11,12-tetrahydro-8H-[1,4]diazepino[5′,6′:4,5]thieno[3,2-f]quinolin-8-one], the IC50 was determined as 1000 nM. The figure for `C=Cc1nccn1-c1ccc2c(ccc3sc4c(c32)NC[C@@H](CF)NC4=O)n1` [Example I-255, (S)-10-(fluoromethyl)-3-(2-vinyl-1H-imidazol-1-yl)-9,10,11,12-tetrahydro-8H-[1,4]diazepino[5′,6′:4,5]thieno[3,2-f]quinolin-8-one] is 1 nM.

Consider `C#Cc1ncc(F)c(-c2ccc3c(ccc4sc5c(c43)NC[C@@H](C)NC5=O)n2)n1` [Example I-1, (R)-3-(2-ethynyl-5-fluoropyrimidin-4-yl)-10-methyl-9,10,11,12-tetrahydro-8H-[1,4]diazepino[5′,6′:4,5]thieno[3,2-f]quinolin-8-one], for which the IC50 came to 5 nM.

Turning to `C=Cc1cc(-c2ccc3c(ccc4sc5c(c43)NC[C@@H](C)NC5=O)n2)cc(N2CC(F)(F)C2)n1` [Example I-184, (R)-3-(2-(3,3-difluoroazetidin-1-yl)-6-vinylpyridin-4-yl)-10-methyl-9,10,11,12-tetrahydro-8H-[1,4]diazepino[5′,6′:4,5]thieno[3,2-f]quinolin-8-one], the IC50 was 175 nM. Next, `C[C@@H]1CNc2c(sc3ccc4nc(-n5cc(Cl)cn5)ccc4c23)C(=O)N1` [Example I-152, (R)-3-(4-chloro-1H-pyrazol-1-yl)-10-methyl-9,10,11,12-tetrahydro-8H-[1,4]diazepino[5′,6′:4,5]thieno[3,2-f]quinolin-8-one]: 86 nM; `C=Cc1cc(-c2ccc3c(ccc4sc5c(c43)NC[C@@H](C)NC5=O)n2)cc(N2CCN(CC)CC2)n1` [Example I-173, (R)-3-(2-(4-ethylpiperazin-1-yl)-6-vinylpyridin-4-yl)-10-methyl-9,10,11,12-tetrahydro-8H-[1,4]diazepino[5′,6′:4,5]thieno[3,2-f]quinolin-8-one]: 35 nM.

In the case of `C[C@@H]1CNc2c(sc3ccc4nc(-c5cc(CN6CCN(C)CC6)nc(Cl)n5)ccc4c23)C(=O)N1` [Example I-87, (R)-3-(2-chloro-6-((4-methylpiperazin-1-yl)methyl)pyrimidin-4-yl)-10-methyl-9,10,11,12-tetrahydro-8H-[1,4]diazepino[5′,6′:4,5]thieno[3,2-f]quinolin-8-one], the IC50 was determined as 283 nM. Next, `C=Cc1nc(-c2ccc3c(ccc4sc5c(c43)NC[C@@H](C)NC5=O)n2)cnc1C` [Example I-166, (R)-10-methyl-3-(5-methyl-6-vinylpyrazin-2-yl)-9,10,11,12-tetrahydro-8H-[1,4]diazepino[5′,6′:4,5]thieno[3,2-f]quinolin-8-one]: 181 nM; `C=Cc1cc(-c2ccc3c(ccc4sc5c(c43)NC[C@@H](C)NC5=O)n2)c(C(F)F)cn1` [Example I-130, (R)-3-(5-(difluoromethyl)-2-vinylpyridin-4-yl)-10-methyl-9,10,11,12-tetrahydro-8H-[1,4]diazepino[5′,6′:4,5]thieno[3,2-f]quinolin-8-one]: 4 nM. The figure for `C#Cc1cc(-c2ccc3c(ccc4sc5c(c43)NC[C@@H](C)NC5=O)n2)cc(CO)n1` [Example I-98, (R)-3-(2-ethynyl-6-(hydroxymethyl)pyridin-4-yl)-10-methyl-9,10,11,12-tetrahydro-8H-[1,4]diazepino[5′,6′:4,5]thieno[3,2-f]quinolin-8-one] is 60 nM; for `C=Cc1cc(-c2ccc3c(ccc4sc5c(c43)NC[C@@H](C)NC5=O)n2)c(OCCN2CCCC2)nn1` [Example I-118, (R)-10-methyl-3-(3-(2-(pyrrolidin-1-yl)ethoxy)-6-vinylpyridazin-4-yl)-9,10,11,12-tetrahydro-8H-[1,4]diazepino[5′,6′:4,5]thieno[3,2-f]quinolin-8-one] it is 28 nM; for `C#Cc1cc(-c2ccc3c(ccc4sc5c(c43)NC[C@@H](C)NC5=O)n2)cc(N2CCN(C)CC2)n1` [Example I-95, (R)-3-(2-ethynyl-6-(4-methylpiperazin-1-yl)pyridin-4-yl)-10-methyl-9,10,11,12-tetrahydro-8H-[1,4]diazepino[5′,6′:4,5]thieno[3,2-f]quinolin-8-one] it is 42 nM. In the case of `C=Cc1cc(-c2ccc3c(ccc4sc5c(c43)NC[C@@H](C)NC5=O)n2)c(C)nn1` [Example I-136, (R)-10-methyl-3-(3-methyl-6-vinylpyridazin-4-yl)-9,10,11,12-tetrahydro-8H-[1,4]diazepino[5′,6′:4,5]thieno[3,2-f]quinolin-8-one], the IC50 came out at 9 nM. For the compound `C=Cc1cc(-c2ccc3c(ccc4sc5c(c43)NC[C@@H](C)NC5=O)n2)cc(N2CCC(F)(F)CC2)n1` [Example I-168, (R)-3-(2-(4,4-difluoropiperidin-1-yl)-6-vinylpyridin-4-yl)-10-methyl-9,10,11,12-tetrahydro-8H-[1,4]diazepino[5′,6′:4,5]thieno[3,2-f]quinolin-8-one], the IC50 stood at 260 nM. For `CCOCc1nc(Cl)cc(-c2ccc3c(ccc4sc5c(c43)NC[C@@H](C)NC5=O)n2)n1` [Example I-30, (R)-3-(6-chloro-2-(ethoxymethyl)pyrimidin-4-yl)-10-methyl-9,10,11,12-tetrahydro-8H-[1,4]diazepino[5′,6′:4,5]thieno[3,2-f]quinolin-8-one], the IC50 was 16 nM.

On to `C[C@@H]1CNc2c(sc3ccc4nc(-c5nc(Cl)ncc5CO)ccc4c23)C(=O)N1` [Example I-75, (R)-3-(2-chloro-5-(hydroxymethyl)pyrimidin-4-yl)-10-methyl-9,10,11,12-tetrahydro-8H-[1,4]diazepino[5′,6′:4,5]thieno[3,2-f]quinolin-8-one], for which the IC50 is 470 nM. Next, `C=Cc1ncc(-c2ccc3c(ccc4sc5c(c43)NC[C@@H](C)NC5=O)n2)[nH]1` [Example I-150, (R)-10-methyl-3-(2-vinyl-1H-imidazol-5-yl)-9,10,11,12-tetrahydro-8H-[1,4]diazepino[5′,6′:4,5]thieno[3,2-f]quinolin-8-one]: 14 nM; `C[C@@H]1CNc2c(sc3ccc4nc(-c5cc(Cl)nc(COC6CCN(C)CC6)n5)ccc4c23)C(=O)N1` [Example I-15, (R)-3-(6-chloro-2-(((1-methylpiperidin-4-yl)oxy)methyl)pyrimidin-4-yl)-10-methyl-9,10,11,12-tetrahydro-8H-[1,4]diazepino[5′,6′:4,5]thieno[3,2-f]quinolin-8-one]: 10 nM. Next, `C[C@@H]1CNc2c(sc3ccc4nc(-c5cc(Cl)ncc5C#N)ccc4c23)C(=O)N1` [Example I-160, (R)-6-chloro-4-(10-methyl-8-oxo-9,10,11,12-tetrahydro-8H-[1,4]diazepino[5′,6′:4,5]thieno[3,2-f]quinolin-3-yl)nicotinonitrile]: 3 nM; `[2H]C([2H])([2H])N1CCN(c2cc(-c3ccc4c(ccc5sc6c(c54)NC[C@@H](C)NC6=O)n3)cc(C=C)n2)CC1` [Example I-171, (R)-10-methyl-3-(2-(4-(methyl-d3)piperazin-1-yl)-6-vinylpyridin-4-yl)-9,10,11,12-tetrahydro-8H-[1,4]diazepino[5′,6′:4,5]thieno[3,2-f]quinolin-8-one]: 13 nM. The figure for `C#Cc1nncn1-c1ccc2c(ccc3sc4c(c32)NC[C@@H](C)NC4=O)n1` [Example I-204, (R)-3-(3-ethynyl-4H-1,2,4-triazol-4-yl)-10-methyl-9,10,11,12-tetrahydro-8H-[1,4]diazepino[5′,6′:4,5]thieno[3,2-f]quinolin-8-one] is 555 nM; for `C=Cc1cc(-c2ccc3c(ccc4sc5c(c43)NC[C@@H](C)NC5=O)n2)cc(CN2CCC3(CC2)CC3(F)F)n1` [Example I-141, (R)-3-(2-((1,1-difluoro-6-azaspiro[2.5]octan-6-yl)methyl)-6-vinylpyridin-4-yl)-10-methyl-9,10,11,12-tetrahydro-8H-[1,4]diazepino[5′,6′:4,5]thieno[3,2-f]quinolin-8-one] it is 111 nM.

`C[C@@H]1CNc2c(sc3ccc4nc(-c5cc(Cl)nc(CO)c5)ccc4c23)C(=O)N1` [Example I-97, (R)-3-(2-chloro-6-(hydroxymethyl)pyridin-4-yl)-10-methyl-9,10,11,12-tetrahydro-8H-[1,4]diazepino[5′,6′:4,5]thieno[3,2-f]quinolin-8-one]: the IC50 was 60 nM.
